The experiment has as its system drug-resistant Mycobacterium tuberculosis. As to conditions: 5 micrograms per ml.

Where no end group is shown, it is not given here.

Usually % inhibition stands for the relative decrease from the control value, in per cent. Higher therefore signals a strong effect. On to FFVAP [Phe-Phe-Val-Ala-Pro], for which the “% inhibition” value is 0.0%.

The values above are taken from patent US20100204157A1, “USE OF A PEPTIDE AS A THERAPEUTIC AGENT” (priority 2007, published 2010).
